Reference: patent publication US20250057808A1, “COMPOSITION COMPRISING BETA LACTAM FOR TREATING ALCOHOL DEPENDENCE AND ALCOHOL ASSOCIATED DISEASES OR CONDITIONS” (Temple University of the Commonwealth System of Higher …, priority 2023, published 2025)
“Also recorded” adds a separate entry of the source. Where two headings read alike, the source gives them in different places.

Legend:
[1] = tested on: mGluR1; assay: Western blot mGluR1 expression in NAc-core and NAc-shell; format: in vivo, P rats; conditions: MC-100093 50 mg/kg or ceftriaxone 200 mg/kg i.p. 5 days; among all groups
Method: We used micro-punch procedure to dissect the subregions of the NAc such as NAc-core and NAc-shell as well as the subregions of prefrontal cortex such as infralimbic (IL) and prelimbic (PL) from the brain on day 6 after the last injection day. P rats were removed from the cage and rapidly euthanized by CO2 inhalation followed by rapid decapitation with a guillotine. Brains were isolated and immediately frozen on dry ice and stored at −80° C. The stereotaxic coordinates provided by Paxinos and colleague's rat brain stereotactic atlas was used to isolate NAc-core and NAc-shell using a cryostat apparatus (−20° C.), which then kept at −80° C. for later western blot analyses.
Western Blot assay was performed to measure changes in the expression of GLT-1, xCT, mGluR1, mGluR5, PPAR-α, PPARγ, GAPDH and β-tubulin in the NAc-core and NAc-shell as described in previous publications. A lysis buffer containing protease and phosphatase inhibitors was used to generate a homogenate of liver, Nac-core, and Nac-shell samples. The amount of protein was quantified using a detergent compatible protein assay (Bio-Rad, Hercules, CA, USA) for each sample. Samples were mixed with laemmli dye and loaded with equal amounts on polyacrylamide gels (10%), which separated the proteins using electrophoresis. After that, polyvinylidene difluoride (PVDF) membranes were used to transfer the proteins electrophoretically from the gels. Membranes were incubated in 5% free-fat milk in Tris-buffered saline with Tween-20 (TBST) for 30-60 minutes at room temperature. Membranes were then incubated with appropriate primary antibodies overnight at 4° C.: rabbit anti-GLT-1 (1:5000, Abcam, ab41621), rabbit anti-xCT (1:2000, Abcam, ab175186), rabbit anti-mGluR1 (1:1000, Abcam, ab82211), rabbit anti-mGluR5 (1:1000, Abcam, ab76316), rabbit anti-PPAR-α (1:1000, Abcam, ab24509), and rabbit anti-PPARγ (1:1000, Abcam, ab209350). Mouse anti-β-tubulin (1:1000; BioLegend) was used as a loading control antibody for the brain samples and rabbit anti-GAPDH (1:5000; cell signaling) was used as a loading control antibody for the liver samples. Membranes were washed five times on the next day with TBST followed by incubation with appropriate secondary antibody (1:5000) for 90 minutes at room temperature. Chemiluminescent reagents (Super Signal West Pico, Pierce Inc.) were used to detect the proteins using a GeneSys imaging system to develop the digitized blot images. Water-control group data were represented as 100% and all other values were expressed relative to control group to detect changes in the expression of the protein of interest in the brain and liver samples.
All statistical analyses were conducted with Graphpad Prism software, with p-values of 0.05 or less being statistically significant. […]

[2] = cited from earlier work
[3] = tested on: GLT-1; assay: Immunoblot GLT-1 in mPFC-IL, mPFC-PL, NAc-core, NAc-shell (section B); format: in vivo, Male and female alcohol-preferring (P) rats; conditions: 100 mg/kg i.p. 5 days
Method: After 24 hours of receiving the last injection, rats were euthanized by CO2 inhalation followed by decapitation with a guillotine. Brains were harvested and immediately frozen on dry ice and stored at −80° C. Cryostat (Leica) was used to isolate the mPFC subregions (mPFC-IL and mPFC-PL), and subregions of the NAc (NAc-core and NAc-shell). Brains were micro-punctured using the stereotaxic coordinates following the Rat Brain Atlas. The isolated brain regions were stored at −80° C. for subsequent protein detection using Western Blot assay.
Immunoblot assays were performed to determine the expression of GLT-1, xCT and β-tubulin in mPFC-IL, mPFC-PL, NAc-core, and NAc-shell of all groups as described previously. Briefly, brain samples were homogenized in lysis buffer supplemented with protease inhibitor and total protein was quantified using protein assay (Bio-Rad, Hercules, CA, USA). Equal amount of the samples was loaded on polyacrylamide gel (10-20%).
Subsequently, proteins were transferred on a PVDF membrane and blocked with 5% milk in Tris-buffered saline Tween-20 (1×TBST) for 30 minutes at room temperature. Membranes were then incubated overnight at 4° C. with one of the following antibodies: rabbit anti-GLT-1 (1:1000, Abcam, AB41621), and/or rabbit anti-xCT (1:1000, Abcam, AB175186). Mouse anti-β-tubulin (1:1000; Cell Signaling D71G5) was used as a loading control antibody. On the following day, membranes were washed five times with 1×TBST followed by incubation with appropriate secondary antibody (1:4000) for 60 minutes at room temperature. Chemiluminescent reagents (Super Signal West Pico, Pierce Inc.) were used to detect proteins using a ChemiDoc imaging system (BioRad, USA).
GLT-1 and xCT expression were normalized against β-tubulin, a control loading protein. Imaging System and ImageJ software version 1.53a were used to quantify and analyze the expression of GLT-1 and xCT in the subregions of the mPFC and NAc. Data from water-control group were represented as 100% and all other values were expressed relative to this control to evaluate the changes in protein expression.
The ratios for treated animals in the ethanol/saline and ethanol/MC-100093 groups were normalized to the mean ratios for the control group (water/saline group). The control ratio was set at 100, and the results from each of the treated groups were expressed as a percentage relative to the water/saline group value of 100%. We normalized the ethanol/saline and ethanol/MC-100093 groups data to water/saline group to reduce any differences of contrast with Western blots for each set of groups (control/water/saline, ethanol/saline, and ethanol/MC-100093 groups).
All statistical analyses were conducted using GraphPad Prism (10). Two-way (mixed) ANOVA followed by Bonferroni multiple comparison post-hoc test was performed to analyze daily ethanol intake, average daily water intake and body weight. One-way ANOVA followed by Newman-Keuls post hoc tests were used to analyze Western blot data. All statistical analyses data were reported as a p<0.05 of significance.

[4] = female P rats, vs ethanol-saline and water-saline
[5] = male P rats, vs ethanol-saline and water-saline

Structure (SMILES): C[C@@H](O)[C@H]1C(=O)N[C@@H]1[C@@H](C)C(=O)N1CCN(C)CC1 [MC-100093]
- Protein expression of mGluR1 in the NAc-core [1]: non-significant difference; also recorded: no significant difference
- Protein expression of mGluR1 in the NAc-shell [1]: non-significant differences; also recorded: no significant difference
- Brain/plasma ratio ([2]; after intraperitoneal (i.p) injection): 14%
- Oral bioavailability (in words) ([2]; following oral administration): orally bioavailable; also recorded: high oral bioavailability; also recorded: some bioavailability
- In vivo half-life ([2]; intraperitoneal route): 4.2 h
- In vivo half-life ([2]; oral route): 5.26 h
- Oxidative metabolism ([2]; rat, in vivo): no oxidative metabolism
- Oral bioavailability (F) ([2]; rats): 28%
- GLT-1 expression in the NAc-core ([3]; female P rats): significant upregulation of GLT-1 expression
- GLT-1 expression in the NAc-shell ([3]; female P rats): significant upregulation of GLT-1 expression
- GLT-1 expression in the mPFC-IL [3, 4]: upregulated GLT-1 expression
- GLT-1 expression in the mPFC-PL [3, 4]: significant upregulation of GLT-1 expression
- GLT-1 expression in mPFC and NAc subregions (summary) ([3]; female and male P rats, vs ethanol-saline groups, 100 mg/kg): upregulated GLT-1 and xCT expression in mPFC and NAc subregions; also recorded: increasing GLT-1 and xCT expression in the mPFC and NAc subregions
- GLT-1 expression in the mPFC-IL ([3]; male P rats): attenuated ethanol-induced downregulation of GLT-1 expression
- GLT-1 expression in the NAc-core [3, 5]: significantly increased
- GLT-1 expression in the NAc-shell [3, 5]: significantly increased
- GLT-1 expression in the mPFC-PL ([3]; male P rats, vs ethanol-saline and water-saline, 100 mg/kg): significantly upregulated GLT-1 expression; also recorded: significantly increased
